Earlier results in publication PMC1657008, “Rotavirus NSP4_114-135 peptide has no direct, specific effect on chloride transport in rabbit brush-border membrane” (Virology Journal, 2006).

System: neonatal mouse intestinal mucosal sheets
Details: added to neonatal mouse intestinal mucosal sheets; ref [1]
Source text: However, the cellular and molecular bases by which rotavirus and NSP4 induce a moderate net chloride secretion remain unclear.

C[N+](C)(C)CCOC(N)=O [carbachol]
Cl- secretory currents: transient, small and almost identical increases in Cl^- secretory currents
